From ChEMBL document CHEMBL1136190, “Synthesis and evaluation of methyl ether derivatives of the vancomycin, teicoplanin, and ristocetin aglycon methyl esters” (2003)
In brackets after ≈: the same amount, converted by molar mass.

How the values were obtained:
Format in all cases: functional
Staphylococcus aureus = experiment: Minimum inhibitory concentration against Staphylococcus aureus (ATCC 25923)
Enterococcus faecalis [1] = experiment: Minimum inhibitory concentration against Enterococcus faecalis (VanA, BM4166)
Enterococcus faecalis [2] = experiment: Minimum inhibitory concentration against Enterococcus faecalis (VanB, ATCC 51299)

| Compound | MIC (Staphylococcus aureus) | MIC (Enterococcus faecalis [1]) | MIC (Enterococcus faecalis [2]) |
| --- | --- | --- | --- |
| CN[C@H](CC(C)C)C(=O)NC1C(=O)NC(CC(N)=O)C(=O)NC2C(=O)NC3C(=O)NC(C(=O)NC(C(=O)OC)c4cc(OC)cc(OC)c4-c4cc3ccc4OC)C(O)c3ccc(c(Cl)c3)Oc3cc2cc(c3OC)Oc2ccc(cc2Cl)[C@H]1O (stereo partly specified) | 1.6 mg/L (≈ 1.32 µM) | 50 mg/L (≈ 41.2 µM) | 1.6 mg/L (≈ 1.32 µM) |
| COC(=O)[C@H]1NC(=O)[C@H]2NC(=O)[C@H](NC(=O)[C@@H]3NC(=O)[C@H]4NC(=O)[C@H](NC(=O)[C@H](N)c5ccc(O)c(c5)Oc5cc4cc(O)c5C)[C@H](O)c4ccc(cc4)Oc4cc3cc(c4O)Oc3ccc(cc3)[C@H]2O)c2ccc(O)c(c2)-c2c(O)cc(O)cc21 | 0.8 mg/L (≈ 0.681 µM) | > 100 mg/L | 25 mg/L (≈ 21.3 µM) |
| CN[C@H](CC(C)C)C(=O)NC1C(=O)NC(CC#N)C(=O)NC2C(=O)NC3C(=O)NC(C(=O)NC(C(=O)OC)c4cc(OC)cc(OC)c4-c4cc3ccc4OC)C(O)c3ccc(c(Cl)c3)Oc3cc2cc(c3OC)Oc2ccc(cc2Cl)[C@H]1O (stereo partly specified) | 1.6 mg/L (≈ 1.34 µM) | 50 mg/L (≈ 41.8 µM) | 1.6 mg/L (≈ 1.34 µM) |
| COC(=O)C1NC(=O)C2NC(=O)C(NC(=O)C3NC(=O)C4NC(=O)[C@H](NC(=O)[C@H](N)c5ccc(O)c(c5)Oc5cc4cc(O)c5C)[C@H](O)c4ccc(cc4)Oc4cc3cc(c4OC)Oc3ccc(cc3)C2O)c2ccc(O)c(c2)-c2c(OC)cc(O)cc21 (stereo partly specified) | 3.2 mg/L (≈ 2.66 µM) | > 100 mg/L | 3.2 mg/L (≈ 2.66 µM) |
| Cc1c(O)cc2cc1Oc1cc(ccc1O)[C@@H](N)C(=O)N[C@H]1C(=O)N[C@@H]2C(=O)N[C@H]2C(=O)N[C@H]3C(=O)N[C@H](C(=O)N[C@@H](C(=O)O)c4cc(O)cc(O[C@H]5O[C@H](CO)[C@@H](O)[C@H](O)[C@@H]5O)c4-c4cc3ccc4O)[C@H](O[C@H]3C[C@@H](N)[C@@H](O)[C@H](C)O3)c3ccc(cc3)Oc3cc2cc(c3O[C@H]2O[C@@H](CO[C@H]3O[C@H](C)[C@@H](O)[C@H](O)[C@@H]3O)[C@H](O)[C@@H](O)[C@@H]2O[C@H]2O[C@H](CO)[C@@H](O)[C@H](O)[C@@H]2O[C@H]2O[C@H](CO)[C@@H](O)[C@@H]2O)Oc2ccc(cc2)[C@H]1O [RISTOCETIN] | 1.6 mg/L (≈ 0.779 µM) | > 100 mg/L | 12.5 mg/L (≈ 6.09 µM) |
| CN[C@H](CC(C)C)C(=O)N[C@H]1C(=O)N[C@@H](CC(N)=O)C(=O)N[C@H]2C(=O)N[C@H]3C(=O)N[C@H](C(=O)N[C@H](C(=O)O)c4cc(O)cc(O)c4-c4cc3ccc4O)[C@H](O)c3ccc(c(Cl)c3)Oc3cc2cc(c3O)Oc2ccc(cc2Cl)[C@H]1O [VANCOMYCIN AGLYCON] | 0.8 mg/L (≈ 0.699 µM) | > 100 mg/L | 25 mg/L (≈ 21.9 µM) |
| CN[C@H](CC(C)C)C(=O)N[C@H]1C(=O)N[C@@H](CC(N)=O)C(=O)N[C@H]2C(=O)N[C@H]3C(=O)N[C@H](C(=O)N[C@H](C(=O)O)c4cc(O)cc(O)c4-c4cc3ccc4O)[C@H](O)c3ccc(c(Cl)c3)Oc3cc2cc(c3O[C@@H]2O[C@H](CO)[C@@H](O)[C@H](O)[C@H]2O[C@H]2C[C@](C)(N)[C@H](O)[C@H](C)O2)Oc2ccc(cc2Cl)[C@H]1O [VANCOMYCIN] | 0.8 mg/L (≈ 0.552 µM) | > 100 mg/L | 25 mg/L (≈ 17.3 µM) |
